Laboratory results published in US20160324153A1, “HERBICIDAL MIXTURE COMPRISING IMAZETHAPYR AND CYCLOXYDIM” (BASF AGROCHEMICAL PRODUCTS, priority 2014, published 2016).

Key:
Type in all cases: in vivo
[1] = system: ECHCO (Echinochloa colonum); experiment: Post emergence treatment, herbicidal activity against ECHCO
Excerpt: (§1) Synergism can be described as an interaction where the combined effect of two or more compounds is greater than the sum of the individual effects of each of the compounds. The presence of a synergistic effect in terms of percent control, between two mixing partners (X and Y) can be calculated using the Colby equation (Colby, S. R., 1967, Calculating Synergistic and Antagonistic Responses in Herbicide Combinations, Weeds, 15, 21-22): When the observed combined control effect is greater than the expected (calculated) combined control effect (E), then the combined effect is synergistic. […] However, the weed control afforded by the compounds, mixtures or compositions is not limited to these species. The analysis of synergism or antagonism between the mixtures or compositions was determined using Colby's equation. Analogously, the Colby's equation can be used to determine synergism of 3-way and higher mixtures. Post Emergence Treatment by the Mixture of Imazethapyr+Cycloxydim Post Emergence Treatment by the Mixture of (Imazethapyr+Imazamox)+Cycloxydim

LEFFA (Leptochloa fusca) = experiment: Post emergence treatment, herbicidal activity against LEFFA; conditions: Example 1, post emergence
Excerpt: as §1, with “Imazethapyr+Cycloxydim” for “Imazethapyr+Cycloxydim Post Emergence Treatment by the Mixture of (Imazethapyr+Imazamox)+Cycloxydim”

ORYSA (Orysa sativa) = experiment: Post emergence treatment, herbicidal activity against ORYSA
Excerpt: as §1

[2] = system: PHACA (Phalaris canariensis); experiment: Post emergence treatment, herbicidal activity against PHACA; conditions: Example 2, post emergence
Excerpt: as §1, with “of” for “of Imazethapyr+Cycloxydim Post Emergence Treatment by the Mixture of”

[3] = system: BRAPL (Brachiaria plantaginea); experiment: Post emergence treatment, herbicidal activity against BRAPL; conditions: Example 2, post emergence; Cycloxydim 3 g ai/ha
Excerpt: as §1, with “of” for “of Imazethapyr+Cycloxydim Post Emergence Treatment by the Mixture of”

[4] = Example 1, post emergence, Imazethapyr 7.5 g ai/ha
[5] = Example 1, post emergence, Cycloxydim 6 g ai/ha

CCc1cnc(C2=NC(C)(C(C)C)C(=O)N2)c(C(=O)O)c1 (racemic) [Imazethapyr, 5-ethyl-2-[(RS)-4-isopropyl-4-methyl-5-oxo-2-imidazolin-2-yl]nicotinic acid]
Herbicidal activity against ECHCO, Found [1, 4]: 85 | Herbicidal activity against LEFFA, Found (LEFFA (Leptochloa fusca); Imazethapyr 7.5 g ai/ha): 55 | Herbicidal activity against ORYSA, Found (ORYSA (Orysa sativa); [4]): 50

CCCC(=NOCC)C1=C(O)CC(C2CCCSC2)CC1=O (racemic) [Cycloxydim, (5RS)-2-[(EZ)-1-(Ethoxyimino)butyl]-3-hydroxy-5-[(3RS)-thian-3-yl]cyclohex-2-en-1-one]
Herbicidal activity against ECHCO, Found [1, 5]: 50 | Herbicidal activity against ECHCO, Found ([1]; Example 2, post emergence, Cycloxydim 3 g ai/ha): 0 | Herbicidal activity against LEFFA, Found (LEFFA (Leptochloa fusca); Cycloxydim 6 g ai/ha): 40 | Herbicidal activity against ORYSA, Found (ORYSA (Orysa sativa); [5]): 20 | Herbicidal activity against ORYSA, Found (ORYSA (Orysa sativa); Example 2, post emergence, Cycloxydim 6 g ai/ha): 20 | Herbicidal activity against PHACA, Found ([2]; the 3rd table, Cycloxydim 3 g ai/ha): 0 | Herbicidal activity against PHACA, Found ([2]; the 5th table, Cycloxydim 3 g ai/ha): 0 | Herbicidal activity against PHACA, Found ([2]; Cycloxydim 6 g ai/ha): 60 | Herbicidal activity against BRAPL, Found [3]: 0
